Experimental findings from patent US8497278B2, “Imidazo[1,2-a]pyridine compounds” (priority 2008, dated 2013) are described below.

Structures are written as SMILES.

This test concerns central benzodiazepine receptors. The experiment in a line: Central benzodiazepine receptor binding (test of Speth et al.). Particulars: 1000 nM of the compound. The method, then: Compounds of the invention were assessed for their binding to the benzodiazepine receptor by the test of Speth et al. [Life Sci. 24, 351 (1979)] for central benzodiazepine receptors and LeFur et al. [Life Sci. 33, 449 (1983)] for peripheral receptors. The compounds were tested first at 1.0E-09, 1.0E-07 and 1.0E-05 M in single determination. […] The specific ligand binding to the receptor is defined as the difference between the total binding and the nonspecific binding determined in the presence of an excess of unlabelled ligand. In each experiment, the respective reference compound was tested concurrently with the test compounds in order to assess the assay suitability. It was tested at several concentrations (for IC50 value determination), and the data were compared with historical values. The assay was rendered valid if suitability criteria were met.
BZD central binding data for the compounds is provided in Table 3, wherein is provided the percent inhibition of central BZD in the presence of 1000 nM of the compound.
For `CCOC(=O)c1nccn1Cc1c(-c2ccc(Cl)cc2)nc2ccc(Cl)cn12` [Compound 22, 1-[6-Chloro-2-(4-chloro-phenyl)-imidazo[1,2-a]pyridin-3-ylmethyl]-1H-imidazole-2-carboxylic acid ethyl ester], the “% Inhibition at 1000 nM for CBZD” value is on record as “++ (percentage of inhibition of central BZD site binding is greater than 80% in the presence of 1000 nM of the compound)”.
Regarding `CON(C)C(=O)c1ncnn1Cc1c(-c2ccc(Cl)cc2)nc2ccc(Cl)cn12` [Compound 82, 2-[6-Chloro-2-(4-chloro-phenyl)-imidazo[1,2-a]pyridin-3-ylmethyl]-2H-[1,2,4]triazole-3-carboxylic acid methoxy-methyl-amide], the “% Inhibition at 1000 nM for CBZD” value is listed as “++ (percentage of inhibition of central BZD site binding is greater than 80% in the presence of 1000 nM of the compound)”.
As to `Cc1cccc(=O)n1Cc1c(-c2ccc(Cl)cc2)nc2ccc(Cl)cn12` [Compound 107, 1-((6-chloro-2-(4-chlorophenyl)H-imidazo[1,2-a]pyridin-3-yl)methyl)-6-methylpyridin-2(1H)-one], the “% Inhibition at 1000 nM for CBZD” value is listed as “++ (percentage of inhibition of central BZD site binding is greater than 80% in the presence of 1000 nM of the compound)”.
`Fc1cc(F)nc(NCc2c(-c3ccccc3)nc3ccc(Cl)cn23)n1` [Compound 168, N-((6-chloro-2-phenylimidazo[1,2-a]pyridin-3-yl)methyl)-4,6-difluoropyrimidin-2-amine]: the “% Inhibition at 1000 nM for CBZD” value was “++ (percentage of inhibition of central BZD site binding is greater than 80% in the presence of 1000 nM of the compound)”.
With `Cc1ccc(-c2nc3ccc(C)cn3c2CON2C(=O)c3ccccc3C2=O)cc1` [Compound 173, 2-((6-methyl-2-p-tolylH-imidazo[1,2-a]pyridin-3-yl)methoxy)isoindoline-1,3-dione], the “% Inhibition at 1000 nM for CBZD” value was “++ (percentage of inhibition of central BZD site binding is greater than 80% in the presence of 1000 nM of the compound)”.
Turning to `Cc1ccc(-c2nc3ccc(C)cn3c2Cn2[nH]c(C)cc2=O)cc1` [Compound 91, 1,2-dihydro-3-methyl-1-((6-methyl-2-p-tolyl-H-imidazo[1,2-a]pyridin-3-yl)methyl)pyrazol-5-one], the “% Inhibition at 1000 nM for CBZD” value is on record as “++ (percentage of inhibition of central BZD site binding is greater than 80% in the presence of 1000 nM of the compound)”.
As for `CSc1nsc(=S)n1Cc1c(-c2ccc(C)cc2)nc2ccc(C)cn12` [Compound 129, 3-Methylsulfanyl-4-(6-methyl-2-p-tolyl-imidazo[1,2-a]pyridin-3-ylmethyl)-4H-[1,2,4]thiadiazole-5-thione], the “% Inhibition at 1000 nM for CBZD” value is listed as “++ (percentage of inhibition of central BZD site binding is greater than 80% in the presence of 1000 nM of the compound)”.
In the case of `Cc1ccc(-c2nc3ccc(C)cn3c2CSc2nncs2)cc1` [Compound 180, 6-Methyl-3-([1,3,4]thiadiazol-2-ylsulfanylmethyl)-2-p-tolyl-imidazo[1,2-a]pyridine], the “% Inhibition at 1000 nM for CBZD” value is reported as “++ (percentage of inhibition of central BZD site binding is greater than 80% in the presence of 1000 nM of the compound)”.
Regarding `Cc1ccc(-c2nc3ccc(C)cn3c2CN2C(=O)CN(C)C2=O)cc1` [Compound 102, 1-methyl-3-((6-methyl-2-p-tolylH-imidazo[1,2-a]pyridin-3-yl)methyl)imidazolidine-2,4-dione], the “% Inhibition at 1000 nM for CBZD” value is on record as “+ (percentage of inhibition of central BZD site binding is greater than 50% but less than 80% in the presence of 1000 nM of the compound)”.
Regarding `CCNc1ccn(Cc2c(-c3ccc(Cl)cc3)nc3ccccn23)c(=O)n1` [Compound 132, 1-((2-(4-chlorophenyl)imidazo[1,2-a]pyridin-3-yl)methyl)-4-(ethylamino)pyrimidin-2(1H)-one], the “% Inhibition at 1000 nM for CBZD” value was “++ (percentage of inhibition of central BZD site binding is greater than 80% in the presence of 1000 nM of the compound)”.
On to `O=C1OCCN1Cc1c(-c2ccc(Cl)cc2)nc2ccc(Cl)cn12` [Compound 111, 3-((6-chloro-2-(4-chlorophenyl)H-imidazo[1,2-a]pyridin-3-yl)methyl)oxazolidin-2-one], for which the “% Inhibition at 1000 nM for CBZD” value is “++ (percentage of inhibition of central BZD site binding is greater than 80% in the presence of 1000 nM of the compound)”.
For `CNCCOc1nccc(NCc2c(-c3ccc(Cl)cc3)nc3ccccn23)n1` [Compound 185, N-((2-(4-chlorophenyl)imidazo[1,2-a]pyridin-3-yl)methyl)-2-(2-(methylamino)ethoxy)pyrimidin-4-amine], the “% Inhibition at 1000 nM for CBZD” value is “++ (percentage of inhibition of central BZD site binding is greater than 80% in the presence of 1000 nM of the compound)”.
`COC(=O)C1Cc2ccccc2N1Cc1c(-c2ccc(Cl)cc2)nc2ccccn12` (stereo not shown) [Compound 35, Methyl 1-((2-(4-chlorophenyl)imidazo[1,2-a]pyridin-3-yl)methyl)indoline-2-carboxylate]: the “% Inhibition at 1000 nM for CBZD” value is on record as “+ (percentage of inhibition of central BZD site binding is greater than 50% but less than 80% in the presence of 1000 nM of the compound)”.
The same measure for `Fc1cc(F)nc(NCc2c(-c3ccc(Cl)cc3)nc3ccccn23)n1` [Compound 167, N-((2-(4-chlorophenyl)imidazo[1,2-a]pyridin-3-yl)methyl)-4,6-difluoropyrimidin-2-amine]: “++ (percentage of inhibition of central BZD site binding is greater than 80% in the presence of 1000 nM of the compound)”.
The result for `Clc1ccc(-c2nc3ccccn3c2Cn2cncn2)cc1` [Compound 67, 3-((1H-1,2,4-triazol-1-yl)methyl)-2-(4-chlorophenyl)imidazo[1,2-a]pyridine] reads “++ (percentage of inhibition of central BZD site binding is greater than 80% in the presence of 1000 nM of the compound)”.
In the case of `CN(C)CCNc1ccn(Cc2c(-c3ccc(Cl)cc3)nc3ccccn23)c(=O)n1` [Compound 134, 1-((2-(4-chlorophenyl)imidazo[1,2-a]pyridin-3-yl)methyl)-4-(2-(dimethylamino)ethylamino)pyrimidin-2(1H)-one], the “% Inhibition at 1000 nM for CBZD” value is on record as “++ (percentage of inhibition of central BZD site binding is greater than 80% in the presence of 1000 nM of the compound)”.
As for `Cc1ccc(-c2nc3ccc(C)cn3c2CNc2ccon2)cc1` [Compound 149, N-((6-methyl-2-p-tolylH-imidazo[1,2-a]pyridin-3-yl)methyl)isoxazole-3-amine], the “% Inhibition at 1000 nM for CBZD” value is listed as “++ (percentage of inhibition of central BZD site binding is greater than 80% in the presence of 1000 nM of the compound)”.
For `Cc1ccc(-c2nc3ccc(C)cn3c2CN2C(=O)OC(C)(C)C2=O)cc1` [Compound 101, 5,5-dimethyl-3-((6-methyl-2-p-tolylH-imidazo[1,2-a]pyridin-3-yl)methyl)oxazolidine-2,4-dione], the “% Inhibition at 1000 nM for CBZD” value was “++ (percentage of inhibition of central BZD site binding is greater than 80% in the presence of 1000 nM of the compound)”.
With `Cc1ccc(-c2nc3ccc(C)cn3c2CNn2cnnc2)cc1` [Compound 152, (6-methyl-2-p-tolylH-imidazo[1,2-a]pyridin-3-yl)-N-(4H-1,2,4-triazol-4-yl)methanamine], the “% Inhibition at 1000 nM for CBZD” value is reported as “+ (percentage of inhibition of central BZD site binding is greater than 50% but less than 80% in the presence of 1000 nM of the compound)”.
With `Cc1nc(Cc2c(-c3ccc(Cl)cc3)nc3ccccn23)no1` [Compound 202, 3-((2-(4-chlorophenyl)imidazo[1,2-a]pyridin-3-yl)methyl)-5-methyl-1,2,4-oxadiazole], the “% Inhibition at 1000 nM for CBZD” value was “++ (percentage of inhibition of central BZD site binding is greater than 80% in the presence of 1000 nM of the compound)”.
With `CN(C)CCNc1cncc(Cc2c(-c3ccc(Cl)cc3)nc3ccccn23)n1` [Compound 190, N1-(6-((2-(4-chlorophenyl)imidazo[1,2-a]pyridin-3-yl)methyl)pyrazin-2-yl)-N2,N2-dimethylethane-1,2-diamine], the “% Inhibition at 1000 nM for CBZD” value is “++ (percentage of inhibition of central BZD site binding is greater than 80% in the presence of 1000 nM of the compound)”.
As for `Cc1nc(Cc2c(-c3ccc(F)cc3)nc3ccc(F)cn23)no1` [Compound 201, 3-((6-fluoro-2-(4-fluoropnyl)imidazo[1,2-a]pyridin-3-yl)methyl)-5-methyl-1,2,4-oxadiazole], the “% Inhibition at 1000 nM for CBZD” value is listed as “++ (percentage of inhibition of central BZD site binding is greater than 80% in the presence of 1000 nM of the compound)”.
Consider `Clc1ccc(-c2nc3ccccn3c2Cc2cncc(OC3CCNC3)n2)cc1` (stereo not shown) [Compound 186, 2-(4-chlorophenyl)-3-((6-(pyrrolidin-3-yloxy)pyrazin-2-yl)methyl)imidazo[1,2-a]pyridine], for which the “% Inhibition at 1000 nM for CBZD” value was “++ (percentage of inhibition of central BZD site binding is greater than 80% in the presence of 1000 nM of the compound)”.
Consider `CC(C)c1nnc(Cc2c(-c3ccc(Cl)cc3)nc3ccccn23)[nH]1` [Compound 231, 2-(4-chlorophenyl)-3-((5-isopropyl-4H-1,2,4-triazol-3-yl)methyl)imidazo[1,2-a]pyridine], for which the “% Inhibition at 1000 nM for CBZD” value is on record as “++ (percentage of inhibition of central BZD site binding is greater than 80% in the presence of 1000 nM of the compound)”.
For the compound `Cc1ccc(-c2nc3ccc(C)cn3c2Cn2ncnc2C(=O)N(C)C)cc1` [Compound 70, 2-(6-Methyl-2-p-tolyl-imidazo[1,2-a]pyridin-3-ylmethyl)-2H-[1,2,4]triazole-3-carboxylic acid dimethylamide], the “% Inhibition at 1000 nM for CBZD” value is “+ (percentage of inhibition of central BZD site binding is greater than 50% but less than 80% in the presence of 1000 nM of the compound)”.
